Laboratory results from patent US7250442B2, “Dihydroindol-2-one derivatives as steroid hormone nuclear receptor modulators” (Eli Lilly and Company, priority 2003, dated 2007).

Molecular target: T1, human MR (Homo sapiens, UniProt P08235)
T1 construct: The full length human MR gene is cloned from a human kidney or human brain cDNA library; made in house; host or cells: Sf9 insect cells (baculovirus, pAcHLT transfer vector)
T1 sequence (P08235 1-984): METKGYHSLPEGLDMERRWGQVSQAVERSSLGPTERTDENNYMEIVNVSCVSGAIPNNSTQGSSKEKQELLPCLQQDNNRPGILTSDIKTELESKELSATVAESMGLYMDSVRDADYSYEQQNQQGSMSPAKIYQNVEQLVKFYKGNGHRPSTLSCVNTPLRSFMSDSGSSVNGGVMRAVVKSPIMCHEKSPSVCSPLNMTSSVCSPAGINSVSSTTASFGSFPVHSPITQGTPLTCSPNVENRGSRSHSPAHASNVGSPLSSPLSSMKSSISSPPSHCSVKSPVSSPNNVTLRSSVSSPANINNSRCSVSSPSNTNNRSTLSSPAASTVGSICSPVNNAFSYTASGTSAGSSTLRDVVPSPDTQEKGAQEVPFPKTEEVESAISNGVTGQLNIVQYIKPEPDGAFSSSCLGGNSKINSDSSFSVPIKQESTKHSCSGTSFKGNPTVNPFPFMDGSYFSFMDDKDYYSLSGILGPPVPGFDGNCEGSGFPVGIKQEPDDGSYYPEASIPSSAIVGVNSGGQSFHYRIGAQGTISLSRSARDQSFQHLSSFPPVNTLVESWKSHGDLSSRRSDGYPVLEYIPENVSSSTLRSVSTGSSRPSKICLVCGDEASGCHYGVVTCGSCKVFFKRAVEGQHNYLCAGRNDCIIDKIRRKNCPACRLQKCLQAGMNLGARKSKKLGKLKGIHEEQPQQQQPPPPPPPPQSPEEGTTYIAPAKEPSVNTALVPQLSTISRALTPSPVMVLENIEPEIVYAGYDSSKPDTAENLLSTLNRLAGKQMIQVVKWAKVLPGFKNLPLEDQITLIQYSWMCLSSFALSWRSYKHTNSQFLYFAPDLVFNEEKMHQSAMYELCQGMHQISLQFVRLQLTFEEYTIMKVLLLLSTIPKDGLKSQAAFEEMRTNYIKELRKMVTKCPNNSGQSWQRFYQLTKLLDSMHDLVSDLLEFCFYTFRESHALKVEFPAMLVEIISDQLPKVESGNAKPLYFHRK
Assay: Mineralocorticoid Receptor Binding Assay ([3H]-aldosterone displacement)
Settings: full length human MR expressed in Sf9 cells, 0.5 nM [3H]-aldosterone
Outline: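 Full-length human MR expressed in Sf9 cells; lysate (20-25 μg protein) incubated with 0.5 nM [3H]-aldosterone and test compound in molybdate/Tris/phosphate/glycerol buffer pH 7.5, 16 h at 4 °C. Bound ligand measured by filtration and scintillation counting; IC50 converted to Ki via Cheng-Prusoff.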

Ki: ≤ 500 nM
SMILES: Cc1cc(C2(c3cc(C)c(O)c(C)c3)C(=O)N(c3cccc(Br)c3)c3ccccc32)cc(C)c1O [Example 139, 1-(3-Bromo-phenyl)-3,3-bis-(4-hydroxy-3,5-dimethyl-phenyl)-1,3-dihydro-indol-2-one]
